Data on 33 molecules can be found in publication PMC8286840, “Identifying SARS-CoV-2 antiviral compounds by screening for small molecule inhibitors of Nsp3 papain-like protease” (Biochemical Journal, 2021).

Each structure is given as a SMILES string. Structures can show the parent of a compound that is named as a salt. Where two headings read alike, the source gives them in different places.

For test [1], the target named is T1, SARS-CoV-2 PLpro (nsp3 1564–1878) (Severe acute respiratory syndrome coronavirus 2, UniProt P0DTD1). Briefly: biochemical. Also noted: FRET-quenched peptide (Pro3) cleavage by PLpro, 10 min pre-incubation, slope over 20 min, normalised to no-compound control. The note with it: high concentration screen, read-out: % of control remaining.
For test [2], the target named is T1, SARS-CoV-2 PLpro (nsp3 1564–1878). Briefly: biochemical. Details: FRET-quenched peptide (Pro3) cleavage by PLpro, 10 min pre-incubation, slope over 20 min, normalised to no-compound control. The following applies: low concentration screen, read-out: % of control remaining.

In the case of `CCC1(c2cccc(O)c2)CCCCN(C)C1` (centres unmarked) [Meptazinol (hydrochloride)], the remaining activity at 3.75 µM in test [1] (Well no.=6511) stood at 98.2%. Also, the remaining activity at 1.25 µM in test [2] (Well no.=6511) amounted to 102%.

On to `CCC1(c2cccc(O)c2)CCCCN(C)C1` (centres unmarked) [Meptazinol HCl], for which, in test [1] (Well no.=4636), the remaining activity at 3.75 µM was determined as 90.6%. The remaining activity at 1.25 µM in test [2] (Well no.=4636) amounted to 93.5%.

Consider `COc1ccc(CN(CCN(C)C)c2ccccn2)cc1` [Mepyramine maleate], for which the remaining activity at 3.75 µM in test [1] (Well no.=1843) came out at 98.2%. The remaining activity at 1.25 µM in test [2] (Well no.=1843) was determined as 98.2%.

With `COc1ccc(O)cc1` [Mequinol], the remaining activity at 3.75 µM in test [1] (Well no.=4736) came out at 99.8%. Also, the remaining activity at 1.25 µM in test [2] (Well no.=4736) is 100%.

As to `S=c1[nH]cnc2nc[nH]c12` [Mercaptopurine], the remaining activity at 3.75 µM in test [1] (Well no.=4771) was determined as 105%. In addition, in test [2] (Well no.=4771), the remaining activity at 1.25 µM turned out to be 104%.

In the case of `C[C@@H](O)[C@H]1C(=O)N2C(C(=O)O)=C(S[C@@H]3CN[C@H](C(=O)N(C)C)C3)[C@H](C)[C@H]12` [Meropenem], the remaining activity at 3.75 µM in test [1] (Well no.=1973) amounted to 103%. Also, the remaining activity at 1.25 µM in test [2] (Well no.=1973) amounted to 103%.

Turning to `CN1CCCCC1CCN1c2ccccc2Sc2ccc([S+](C)[O-])cc21` (centres unmarked) [Mesoridazine besylate], the remaining activity at 3.75 µM in test [1] (Well no.=2110) stood at 99.5%. Moreover, in test [2] (Well no.=2110), the remaining activity at 1.25 µM came out at 97.7%.

As to `C#C[C@]1(O)CC[C@H]2[C@@H]3CCc4cc(OC)ccc4[C@H]3CC[C@@]21C` [Mestranol], the remaining activity at 3.75 µM in test [1] (Well no.=4768) came to 102%. Further, the remaining activity at 1.25 µM in test [2] (Well no.=4768) stood at 101%.

In the case of `CN1C[C@@H](NS(=O)(=O)N(C)C)C[C@@H]2c3cccc4c3c(cn4C)C[C@H]21` [Mesulergine hydrochloride], the remaining activity at 3.75 µM in test [1] (Well no.=897) was determined as 105%. Further, the remaining activity at 1.25 µM in test [2] (Well no.=897) came out at 106%.

For `Cc1ncc(CO)c(CO)c1O` [Metadoxine], in test [1] (Well no.=8662), the remaining activity at 3.75 µM came out at 93.3%. The remaining activity at 1.25 µM in test [2] (Well no.=8662) worked out at 96.1%.

On to `S=C=Nc1cccc(C2(N3CCCCC3)CCCCC2)c1` [Metaphit methanesulfonate], for which the remaining activity at 3.75 µM in test [1] (Well no.=991) came out at 98.9%. For the same molecule, in test [2] (Well no.=991), the remaining activity at 1.25 µM stood at 98.8%.

With `CC(C)NCC(O)c1cc(O)cc(O)c1` (centres unmarked) [Metaproterenol hemisulfate], the remaining activity at 3.75 µM in test [1] (Well no.=826) was 100%. For the same molecule, the remaining activity at 1.25 µM in test [2] (Well no.=826) stood at 104%.

`C[C@H](N)[C@H](O)c1cccc(O)c1` [Metaraminol (tartrate)]: the remaining activity at 3.75 µM in test [1] (Well no.=6417) turned out to be 99.6%. Besides, the remaining activity at 1.25 µM in test [2] (Well no.=6417) was 103%.

On to `CN1C[C@H](CNC(=O)OCc2ccccc2)C[C@@H]2c3cccc4c3c(cn4C)C[C@H]21` [Metergoline], for which the remaining activity at 3.75 µM in test [1] (Well no.=782) amounted to 100%. The remaining activity at 1.25 µM in test [2] (Well no.=782) turned out to be 99.4%.

With `CN(C)C(=N)NC(=N)N` [Metformin HCl], the remaining activity at 3.75 µM in test [1] (Well no.=8430) was determined as 94.9%. Besides, the remaining activity at 1.25 µM in test [2] (Well no.=8430) turned out to be 94.8%.

As to `CN(C)C(=N)NC(=N)N` [Metformin], the remaining activity at 3.75 µM in test [1] (Well no.=1627) is 103%. For the same molecule, the remaining activity at 1.25 µM in test [2] (Well no.=1627) was determined as 103%.

With `CC(=O)OC(C)C[N+](C)(C)C` (centres unmarked) [Methacholine (chloride)], in test [1] (Well no.=6323), the remaining activity at 3.75 µM worked out at 98.1%. Moreover, the remaining activity at 1.25 µM in test [2] (Well no.=6323) is 100%.

As to `CC(=O)/N=c1/sc(S(N)(=O)=O)nn1C` [Methazolamide], the remaining activity at 3.75 µM in test [1] (Well no.=4686) was determined as 98.7%. The remaining activity at 1.25 µM in test [2] (Well no.=4686) was 100%.

For `C1N2CN3CN1CN(C2)C3` [Methenamine (Mandelamine)], the remaining activity at 3.75 µM in test [1] (Well no.=4975) is 96.7%. Also, the remaining activity at 1.25 µM in test [2] (Well no.=4975) turned out to be 96.3%.

Regarding `COc1cccc(OC)c1C(=O)N[C@@H]1C(=O)N2[C@@H]1SC(C)(C)[C@@H]2C(=O)O` [Methicillin (sodium salt)], in test [1] (Well no.=7448), the remaining activity at 3.75 µM turned out to be 99.6%. Also, the remaining activity at 1.25 µM in test [2] (Well no.=7448) came to 100%.

On to `Cn1ccnc1S` [Methimazole], for which the remaining activity at 3.75 µM in test [1] (Well no.=1961) is 94.6%. The remaining activity at 1.25 µM in test [2] (Well no.=1961) turned out to be 92.6%.

In the case of `CSc1ccc2c(c1)C(N1CCN(C)CC1)Cc1ccccc1S2` (centres unmarked) [Methiothepin mesylate], the remaining activity at 3.75 µM in test [1] (Well no.=801) was determined as 101%. The remaining activity at 1.25 µM in test [2] (Well no.=801) was determined as 99.9%.

Regarding `COc1ccccc1OCC(O)COC(N)=O` (centres unmarked) [Methocarbamol], the remaining activity at 3.75 µM in test [1] (Well no.=8238) was 94.6%. For the same molecule, the remaining activity at 1.25 µM in test [2] (Well no.=8238) amounted to 98%.

Take `COc1ccccc1CNCCCCCCNCCCCCCCCNCCCCCCNCc1ccccc1OC` [Methoctramine tetrahydrochloride]: the remaining activity at 3.75 µM in test [1] (Well no.=1085) worked out at 102%. The remaining activity at 1.25 µM in test [2] (Well no.=1085) was found to be 102%.

As to `COC(C)(C)CCCC(C)C/C=C/C(C)=C/C(=O)O` (centres unmarked) [Methoprene acid], the remaining activity at 3.75 µM in test [1] (Well no.=4438) amounted to 100%. For the same molecule, the remaining activity at 1.25 µM in test [2] (Well no.=4438) is 98.3%.

Take `CN(Cc1cnc2nc(N)nc(N)c2n1)c1ccc(C(=O)N[C@@H](CCC(=O)O)C(=O)O)cc1` [Methotrexate]: the remaining activity at 3.75 µM in test [1] (Well no.=69) is 95.5%; in test [1] (Well no.=7352), 97.6%. Also, the results for the remaining activity at 1.25 µM in test [2] (Well no.=69) and in test [2] (Well no.=7352) were 94.1% and 94.4%, respectively.

As for `COc1ccc(OC)c([C@@H](O)[C@H](C)N)c1` [Methoxamine hydrochloride], the remaining activity at 3.75 µM in test [1] (Well no.=980) is 101%. The remaining activity at 1.25 µM in test [2] (Well no.=980) was determined as 100%.

In the case of `CNC(C)Cc1ccccc1OC` (centres unmarked) [Methoxyphenamine (Hydrochloride)], in test [1] (Well no.=8577), the remaining activity at 3.75 µM was found to be 105%. Moreover, the remaining activity at 1.25 µM in test [2] (Well no.=8577) stood at 109%.

As for `C[N+]1(C)[C@@H]2C[C@@H](OC(=O)[C@H](CO)c3ccccc3)C[C@H]1[C@@H]1O[C@@H]12` [Methscopolamine (bromide)], the remaining activity at 3.75 µM in test [1] (Well no.=8297) is 96.8%. Besides, the remaining activity at 1.25 µM in test [2] (Well no.=8297) stood at 97.7%.

Turning to `CCc1c(C(=O)OC)ncc2[nH]c3cc(OC)c(OC)cc3c12` [Methyl 6,7-dimethoxy-4-ethyl-beta-carboline-3-carboxylate], the remaining activity at 3.75 µM in test [1] (Well no.=703) was 95.4%. For the same molecule, in test [2] (Well no.=703), the remaining activity at 1.25 µM is 97.5%.

As to `COC(=O)c1cc2c(cn1)[nH]c1ccccc12` [Methyl beta-carboline-3-carboxylate], the remaining activity at 3.75 µM in test [1] (Well no.=607) came to 98.2%. Moreover, in test [2] (Well no.=607), the remaining activity at 1.25 µM was found to be 95.4%.

Take `CO[C@]1(CC[C@@H](C)CO[C@@H]2O[C@H](CO)[C@@H](O)[C@H](O)[C@H]2O)O[C@H]2C[C@H]3[C@@H]4CC=C5C[C@@H](O[C@@H]6O[C@H](CO)[C@@H](O[C@@H]7O[C@@H](C)[C@H](O)[C@@H](O)[C@H]7O)[C@H](O)[C@H]6O[C@@H]6O[C@@H](C)[C@H](O)[C@@H](O)[C@H]6O)CC[C@]5(C)[C@H]4CC[C@]3(C)[C@H]2[C@@H]1C` [Methyl protodioscin]: in test [1] (Well no.=6208), the remaining activity at 3.75 µM was 93.7%. The remaining activity at 1.25 µM in test [2] (Well no.=6208) is 101%.

Take `COC(=O)c1ccccc1O` [Methyl salicylate]: the remaining activity at 3.75 µM in test [1] (Well no.=1716) was 101%. In addition, the remaining activity at 1.25 µM in test [2] (Well no.=1716) worked out at 102%.
